One test deals with influenza A virus minigenome (PB2, PB1, PA, NP proteins) (UniProt P04665). Format: cell-based. As to conditions: read-out: RNP_ Hubei B IC50.
Sequence of influenza A virus minigenome (PB2, PB1, PA, NP proteins) (P04665 whole entry): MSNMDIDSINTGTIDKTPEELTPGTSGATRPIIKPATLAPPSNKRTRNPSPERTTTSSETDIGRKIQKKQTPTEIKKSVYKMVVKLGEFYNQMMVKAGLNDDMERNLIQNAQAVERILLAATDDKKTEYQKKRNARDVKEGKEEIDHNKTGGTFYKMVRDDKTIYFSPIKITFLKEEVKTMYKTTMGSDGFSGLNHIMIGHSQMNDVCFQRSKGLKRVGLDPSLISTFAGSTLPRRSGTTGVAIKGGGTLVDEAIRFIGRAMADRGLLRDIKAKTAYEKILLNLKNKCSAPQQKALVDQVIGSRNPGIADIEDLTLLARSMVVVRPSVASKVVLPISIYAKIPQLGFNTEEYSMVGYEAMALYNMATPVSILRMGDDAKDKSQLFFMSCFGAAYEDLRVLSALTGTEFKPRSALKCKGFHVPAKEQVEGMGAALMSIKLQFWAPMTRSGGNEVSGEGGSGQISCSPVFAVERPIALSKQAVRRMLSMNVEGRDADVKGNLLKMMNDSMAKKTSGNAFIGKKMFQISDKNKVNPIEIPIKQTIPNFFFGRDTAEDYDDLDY
As for `CN1[C@H](COc2ccc(-c3cc(C(N)=O)c(=O)[nH]c3C(F)(F)F)cc2)COC[C@@H]1C1CC1` [Example 209, 5-(4-(((3S,5S)-5-cyclopropyl-4-methylmorpholin-3-yl)methoxy)phenyl)-2-oxo-6-(trifluoromethyl)-1,2-dihydropyridine-3-carboxamide], the IC50 lay within 5 to 10 µM.

For `CN1[C@@H](COc2ccc(-c3cc(C(N)=O)c(=O)[nH]c3C(F)(F)F)cc2)COC[C@@H]1C1CC1` [Example 210, 5-(4-(((3R,5S)-5-cyclopropyl-4-methylmorpholin-3-yl)methoxy)phenyl)-2-oxo-6-(trifluoromethyl)-1,2-dihydropyridine-3-carboxamide], the IC50 fell in the range of 5 to 10 µM.

Regarding `CC(C)[C@H]1COCC(COc2ccc(-c3cc(C(N)=O)c(=O)[nH]c3C(F)(F)F)cc2)N1C` (stereo partly drawn) [Example 211, 5-(4-(((5S)-5-isopropyl-4-methylmorpholin-3-yl)methoxy)phenyl)-2-oxo-6-(trifluoromethyl)-1,2-dihydropyridine-3-carboxamide], the IC50 was 1 to 5 µM.

On to `CCn1nccc1COc1ccc(-c2cc(C(N)=O)c(=O)[nH]c2C(F)(F)F)cc1` [Example 217, 5-(4-((1-ethyl-1H-pyrazol-5-yl)methoxy)phenyl)-2-oxo-6-(trifluoromethyl)-1,2-dihydropyridine-3-carboxamide], for which the IC50 was in the range of 25 to 50 µM.

Regarding `COCCn1cc(COc2ccc(-c3cc(C(N)=O)c(=O)[nH]c3C(F)(F)F)cc2)cn1` [Example 218, 5-(4-((1-(2-methoxyethyl)-1H-pyrazol-4-yl)methoxy)phenyl)-2-oxo-6-(trifluoromethyl)-1,2-dihydropyridine-3-carboxamide], the IC50 is 25 to 50 µM.

As for `COCCn1nccc1COc1ccc(-c2cc(C(N)=O)c(=O)[nH]c2C(F)(F)F)cc1` [Example 219, 5-(4-((1-(2-methoxyethyl)-1H-pyrazol-5-yl)methoxy)phenyl)-2-oxo-6-(trifluoromethyl)-1,2-dihydropyridine-3-carboxamide], the IC50 fell in the range of 25 to 50 µM.

Consider `Cn1cc(COc2ccc(-c3cc(C(N)=O)c(=O)[nH]c3C(F)(F)F)cc2)cn1` [Example 220, 5-(4-((1-methyl-1H-pyrazol-4-yl)methoxy)phenyl)-2-oxo-6-(trifluoromethyl)-1,2-dihydropyridine-3-carboxamide], for which the IC50 lay within 25 to 50 µM.

Take `NC(=O)c1cc(-c2ccc(OCc3cnn(CC4CC4)c3)cc2)c(C(F)(F)F)[nH]c1=O` [Example 221, 5-(4-((1-(cyclopropylmethyl)-1H-pyrazol-4-yl)methoxy)phenyl)-2-oxo-6-(trifluoromethyl)-1,2-dihydropyridine-3-carboxamide]: the IC50 fell in the range of 10 to 25 µM.

As for `CCn1cc(COc2ccc(-c3cc(C(N)=O)c(=O)[nH]c3C(F)(F)F)cc2)cn1` [Example 222, 5-(4-((1-ethyl-1H-pyrazol-4-yl)methoxy)phenyl)-2-oxo-6-(trifluoromethyl)-1,2-dihydropyridine-3-carboxamide], the IC50 was 25 to 50 µM.

Take `NC(=O)c1cc(-c2ccc(OCc3ccon3)cc2)c(C(F)(F)F)[nH]c1=O` [Example 223, 5-(4-(isoxazol-3-ylmethoxy)phenyl)-2-oxo-6-(trifluoromethyl)-1,2-dihydropyridine-3-carboxamide]: the IC50 was in the range of 25 to 50 µM.

As to `Cc1cc(COc2ccc(-c3cc(C(N)=O)c(=O)[nH]c3C(F)(F)F)cc2)no1` [Example 224, 5-(4-((5-methylisoxazol-3-yl)methoxy)phenyl)-2-oxo-6-(trifluoromethyl)-1,2-dihydropyridine-3-carboxamide], the IC50 lay within 25 to 50 µM.

Turning to `NC(=O)c1cc(-c2ccc(OCC3CCO3)cc2)c(C(F)(F)F)[nH]c1=O` (stereo not drawn) [Example 225, 5-(4-(oxetan-2-ylmethoxy)phenyl)-2-oxo-6-(trifluoromethyl)-1,2-dihydropyridine-3-carboxamide], the IC50 lay within 25 to 50 µM.

With `NC(=O)c1cc(-c2ccc(OCC3(F)COC3)cc2)c(C(F)(F)F)[nH]c1=O` [Example 226, 5-(4-((3-fluorooxetan-3-yl)methoxy)phenyl)-2-oxo-6-(trifluoromethyl)-1,2-dihydropyridine-3-carboxamide], the IC50 is 25 to 50 µM.

For the compound `CC1(COc2ccc(-c3cc(C(N)=O)c(=O)[nH]c3C(F)(F)F)cc2)COC1` [Example 227], the IC50 was in the range of 25 to 50 µM.

`CCC1(COc2ccc(-c3cc(C(N)=O)c(=O)[nH]c3C(F)(F)F)cc2)COC1` [Example 228]: the IC50 lay within 10 to 25 µM.

For `N#CCC1(COc2ccc(-c3cc(C(N)=O)c(=O)[nH]c3C(F)(F)F)cc2)COC1` [Example 229, 5-(4-((3-(cyanomethyl)oxetan-3-yl)methoxy)phenyl)-2-oxo-6-(trifluoromethyl)-1,2-dihydropyridine-3-carboxamide], the IC50 lay in the range of 25 to 50 µM.

The test is the same for the next values; noted with them: read-out: RNP_Hubei B.
As for `NC(=O)c1cc(-c2ccc(OCc3ccc(Cl)nc3)cc2)c(C(F)(F)F)[nH]c1=O` [Example 176, 5-(4-((6-chloropyridin-3-yl)methoxy)phenyl)-2-oxo-6-(trifluoromethyl)-1,2-dihydropyridine-3-carboxamide], the IC50 lay in the range of 25 to 50 µM.

As for `NC(=O)c1cc(-c2ccc(COc3cccnc3)cc2)c(C(F)(F)F)[nH]c1=O` [Example 177, 2-oxo-5-(4-((pyridin-3-yloxy)methyl)phenyl)-6-(trifluoromethyl)-1,2-dihydropyridine-3-carboxamide], the IC50 lay within 25 to 50 µM.

As to `NC(=O)c1cc(-c2ccc(OCc3cncc(C4(O)COC4)c3)cc2)c(C(F)(F)F)[nH]c1=O` [Example 181, 5-(4-((5-(3-hydroxyoxetan-3-yl)pyridin-3-yl)methoxy)phenyl)-2-oxo-6-(trifluoromethyl)-1,2-dihydropyridine-3-carboxamide], the IC50 was 25 to 50 µM.

For `NC(=O)c1cc(-c2ccc(OC(c3cccnc3)C3CC3)cc2)c(C(F)(F)F)[nH]c1=O` (stereo not drawn) [Example 184, 5-(4-(cyclopropyl(pyridin-3-yl)methoxy)phenyl)-2-oxo-6-(trifluoromethyl)-1,2-dihydropyridine-3-carboxamide], the IC50 was in the range of 10 to 25 µM.

Regarding `C=CCCC(Oc1ccc(-c2cc(C(N)=O)c(=O)[nH]c2C(F)(F)F)cc1)c1cccnc1` (stereo not drawn) [Example 185, 2-oxo-5-(4-((1-(pyridin-3-yl)pent-4-en-1-yl)oxy)phenyl)-6-(trifluoromethyl)-1,2-dihydropyridine-3-carboxamide], the IC50 fell in the range of 10 to 25 µM.

Regarding `COCC(Oc1ccc(-c2cc(C(N)=O)c(=O)[nH]c2C(F)(F)F)cc1)c1cccnc1` (stereo not drawn) [Example 186, 5-(4-(2-methoxy-1-(pyridin-3-yl)ethoxy)phenyl)-2-oxo-6-(trifluoromethyl)-1,2-dihydropyridine-3-carboxamide], the IC50 is 25 to 50 µM.

With `NC(=O)c1cc(-c2ccc(OCC3CNCCO3)cc2)c(C(F)(F)F)[nH]c1=O` (stereo not drawn) [Example 189, 5-(4-(morpholin-2-ylmethoxy)phenyl)-2-oxo-6-(trifluoromethyl)-1,2-dihydropyridine-3-carboxamide], the IC50 fell in the range of 25 to 50 µM.

Take `CC(C)S(=O)(=O)N1CCOC(COc2ccc(-c3cc(C(N)=O)c(=O)[nH]c3C(F)(F)F)cc2)C1` (stereo not drawn) [Example 191, 5-(4-((4-(isopropylsulfonyl)morpholin-2-yl)methoxy)phenyl)-2-oxo-6-(trifluoromethyl)-1,2-dihydropyridine-3-carboxamide]: the IC50 lay in the range of 25 to 50 µM.

With `NC(=O)c1cc(-c2ccc(OCC3CN(CC(F)F)CCO3)cc2)c(C(F)(F)F)[nH]c1=O` (stereo not drawn) [Example 192, 5-(4-((4-(2,2-difluoroethyl)morpholin-2-yl)methoxy)phenyl)-2-oxo-6-(trifluoromethyl)-1,2-dihydropyridine-3-carboxamide], the IC50 lay within 25 to 50 µM.

Regarding `COCCN1CCOC(COc2ccc(-c3cc(C(N)=O)c(=O)[nH]c3C(F)(F)F)cc2)C1` (stereo not drawn) [Example 193, 5-(4-((4-(2-methoxyethyl)morpholin-2-yl)methoxy)phenyl)-2-oxo-6-(trifluoromethyl)-1,2-dihydropyridine-3-carboxamide], the IC50 fell in the range of 25 to 50 µM.

In the case of `NC(=O)c1cc(-c2ccc(OCC3CN(CC4CC4)CCO3)cc2)c(C(F)(F)F)[nH]c1=O` (stereo not drawn) [Example 194, 5-(4-((4-(cyclopropylmethyl)morpholin-2-yl)methoxy)phenyl)-2-oxo-6-(trifluoromethyl)-1,2-dihydropyridine-3-carboxamide], the IC50 is 25 to 50 µM.

Turning to `NC(=O)c1cc(-c2ccc(OCC3CNCCCO3)cc2)c(C(F)(F)F)[nH]c1=O` (stereo not drawn) [Example 195, 5-(4-((1,4-oxazepan-2-yl)methoxy)phenyl)-2-oxo-6-(trifluoromethyl)-1,2-dihydropyridine-3-carboxamide], the IC50 was in the range of 25 to 50 µM.

For the compound `NC(=O)c1cc(-c2ccc(OCC3CN(C4COC4)CCCO3)cc2)c(C(F)(F)F)[nH]c1=O` (stereo not drawn) [Example 196, 5-(4-((4-(oxetan-3-yl)-1,4-oxazepan-2-yl)methoxy)phenyl)-2-oxo-6-(trifluoromethyl)-1,2-dihydropyridine-3-carboxamide], the IC50 fell in the range of 25 to 50 µM.

With `CC(C)CS(=O)(=O)N1CCCOC(COc2ccc(-c3cc(C(N)=O)c(=O)[nH]c3C(F)(F)F)cc2)C1` (stereo not drawn) [Example 198, 5-(4-((4-(isobutylsulfonyl)-1,4-oxazepan-2-yl)methoxy)phenyl)-2-oxo-6-(trifluoromethyl)-1,2-dihydropyridine-3-carboxamide], the IC50 was 25 to 50 µM.

Take `CN1C(COc2ccc(-c3cc(C(N)=O)c(=O)[nH]c3C(F)(F)F)cc2)COCC12COC2` (stereo not drawn) [Example 206, 5-(4-((5-methyl-2,8-dioxa-5-azaspiro[3.5]nonan-6-yl)methoxy)phenyl)-2-oxo-6-(trifluoromethyl)-1,2-dihydropyridine-3-carboxamide]: the IC50 lay in the range of 25 to 50 µM.

With `CN1C(COc2ccc(-c3cc(C(N)=O)c(=O)[nH]c3C(F)(F)F)cc2)COCC1(C)C` (stereo not drawn) [Example 207, 2-oxo-6-(trifluoromethyl)-5-(4-((4,5,5-trimethylmorpholin-3-yl)methoxy)phenyl)-1,2-dihydropyridine-3-carboxamide], the IC50 lay in the range of 5 to 10 µM.

Consider `C[C@H]1COCC(COc2ccc(-c3cc(C(N)=O)c(=O)[nH]c3C(F)(F)F)cc2)N1C` (stereo partly drawn) [Example 208, 5-(4-(((5S)-4,5-dimethylmorpholin-3-yl)methoxy)phenyl)-2-oxo-6-(trifluoromethyl)-1,2-dihydropyridine-3-carboxamide], for which the IC50 was 5 to 10 µM.

These data come from patent US20240360082A1, “SUBSTITUTED PYRIDONE COMPOUNDS USEFUL TO TREAT ORTH[…]” (priority 2021, published 2024).
